Data reported in patent US20250243488A1, “METHODS OF MODULATING PROGRANULIN EXPRESSION USING ANTISENSE OLIGONUCLEOTIDES TARGETING REGULATORY RNAS” (Camp4 Therapeutics Corporation, priority 2022, published 2025).
Oligonucleotides are written 5' to 3', each unit as a sugar letter and its base; * is a phosphorothioate linkage, no mark a phosphodiester; rarer units and linkages stand in square brackets, end groups in braces. Plain capitals give the bases only. e = 2'-O-(2-methoxyethyl) (MOE); l = locked nucleic acid (LNA); [5mC] = 5-methylcytosine; d = 2'-deoxy (DNA)

Test system: GRN mRNA
Experiment: GRN mRNA qPCR in SK-N-AS cells transfected with ASOs
Format: cell-based, human
Conditions: SK-N-AS; for 120 nM FC (GRN mRNA) / hGRN mRNA FC: 120 nM
How it was run: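 Human neuroblastoma SK-N-AS cells transfected with ASOs at increasing concentrations (20 to 160 nM in initial titrations); GRN mRNA quantified by qPCR after 48 hours. Normalized to GAPDH and PPIA, fold change relative to steric non-targeting control ASO(s) (sNTC/CO-1589, with CO-3772 and CO-1929 in some series).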

[1] = Table 7, normalized to CO-1589 (sNTC1)
[2] = Table 9, 48 hours post-transfection, normalized to CO-1589
[3] = Table 13, normalized to CO-1589
[4] = Table 12, normalized to CO-1589
[5] = Table 11, 48 hours, normalized to CO-1589
[6] = Table 8, normalized to CO-1589 (sNTC1)
[7] = Table 3, normalized to CO-3772 and CO-1589 (sNTC1)

Substance: CO-5267: CO-3423 with additional LNA tiling and PO bond modifications (antisense GGACTTGGGAGTGGTGACTG; 2'-MOE, mixed PS/PO, 5-methylcytosine; listed as RNA; modified_base 1..9: mod_base = OTHER; note = Phosphorothioate linkage; modified_base 17..20: mod_base = OTHER; modified_base 1..20: mod_base = OTHER; note = 2'-O-(2-methoxyethyl) ribonucleotide; modified_base 4)
- 7.5 nM FC (GRN mRNA) [1]: 1.0 FC
- 13 nM FC (GRN mRNA) [1]: 1.0 FC
- 30 nM FC (GRN mRNA) [1]: 1.2 FC
- 60 nM FC (GRN mRNA) [1]: 1.7 FC
- 120 nM FC (GRN mRNA) [1]: 1.9 FC
- 150 nM FC (GRN mRNA) [1]: 2.3 FC

Substance: CO-4603: ASO designed to target intergenic enhancers (eRNA) (antisense e[5mC]*e[5mC]*eA*e[5mC]*eT*eT*e[5mC]*eG*e[5mC]*eG*eT*eT*eT*eA*eG*eA*eA*e[5mC]*eT*eT)
- hGRN mRNA FC [2]: 1.3 FC

Substance: CO-6416: ASO based on parent ASOs CO-4363 and CO-4364 (eG*eG*lA*e[5mC]*eT*lT*eG*eG*lG*eA*eG*lT*eG*eG*lT*eG*eA*l[5mC]*eT*eG*eA)
- 30 nM FC (GRN mRNA) [3]: 1.4 FC
- 60 nM FC (GRN mRNA) [3]: 1.6 FC
- 120 nM FC (GRN mRNA) [3]: 2.2 FC

Substance: CO-6388: ASO based on parent ASO CO-3462 (antisense eT*eA*eG*eG*eA*lG*dA*dA*lT*d[5mC]*dG*l[5mC]*dT*dT*lT*eG*eG*eG*eA*eG)
- 30 nM FC (GRN mRNA) [4]: 1.1 FC
- 60 nM FC (GRN mRNA) [4]: 1.0 FC
- 120 nM FC (GRN mRNA) [4]: 1.4 FC

Substance: CO-6432: ASO designed to target an intragenic enhancer RNA (eRNA) (eG*eA*eG*eA*eA*e[5mC]*eG*e[5mC]*eT*eA*e[5mC]*e[5mC]*eA*e[5mC]*eG*eG*eA*e[5mC]*e[5mC]*eT)
- hGRN mRNA FC [5]: 1.0 FC

Substance: CO-4610: ASO designed to target intergenic enhancers (eRNA) (antisense eG*eG*eA*e[5mC]*eA*eT*eG*e[5mC]*eT*eG*eG*eA*eA*eA*eG*eT*e[5mC]*eT*eT*eA)
- hGRN mRNA FC [2]: 1.2 FC

Substance: CO-6440: ASO designed to target an intragenic enhancer RNA (eRNA) (eG*eT*eT*e[5mC]*eA*eT*eG*e[5mC]*eT*eA*e[5mC]*e[5mC]*e[5mC]*e[5mC]*e[5mC]*eT*eA*eG*eT*eG)
- hGRN mRNA FC [5]: 1.0 FC

Substance: CO-4638: ASO designed to target intergenic enhancers (eRNA) (antisense eT*eT*eG*eA*eT*eA*eG*eA*eT*eG*eG*e[5mC]*eA*eG*eG*eT*e[5mC]*eA*eG*eG)
- hGRN mRNA FC [2]: 1.0 FC

Substance: CO-4646: ASO designed to target intergenic enhancers (eRNA) (antisense eG*eT*eG*eT*eG*eA*eA*eA*eT*eG*eA*eT*eG*eG*eT*eA*e[5mC]*e[5mC]*eA*eG)
- hGRN mRNA FC [2]: 1.3 FC

Substance: CO-6453: ASO designed to target an intragenic enhancer RNA (eRNA) (eG*eA*eA*eA*eA*eA*eG*eT*eT*eT*e[5mC]*e[5mC]*eT*e[5mC]*e[5mC]*eA*eT*e[5mC]*e[5mC]*eT)
- hGRN mRNA FC [5]: 0.9 FC

Substance: CO-6434: ASO designed to target an intragenic enhancer RNA (eRNA) (eT*e[5mC]*e[5mC]*eG*eA*eT*e[5mC]*eA*e[5mC]*e[5mC]*eT*eG*e[5mC]*eA*e[5mC]*eT*eG*e[5mC]*eT*eG)
- hGRN mRNA FC [5]: 0.9 FC

Substance: CO-4597: ASO designed to target intergenic enhancers (eRNA) (antisense eA*eG*eG*e[5mC]*eG*eT*e[5mC]*e[5mC]*eT*eT*eT*e[5mC]*e[5mC]*eA*eT*eT*e[5mC]*e[5mC]*e[5mC]*eT)
- hGRN mRNA FC [2]: 0.9 FC

Substance: CO-6397: ASO based on parent ASO CO-3462 (antisense eT*eA*eG*eG*eA*lG*eA*eA*eT*e[5mC]*lG*e[5mC]*eT*eT*eT*lG*eG*eG*eA*eG)
- 30 nM FC (GRN mRNA) [4]: 1.4 FC
- 60 nM FC (GRN mRNA) [4]: 1.8 FC
- 120 nM FC (GRN mRNA) [4]: 1.8 FC

Substance: CO-6411: ASO based on parent ASO CO-3462 (antisense eT*eA*eGeGeA*eG*eA*eA*eT*e[5mC]*eG*e[5mC]*eT*eT*eT*eGeGeG*eA*eG)
- 30 nM FC (GRN mRNA) [4]: 1.1 FC
- 60 nM FC (GRN mRNA) [4]: 1.4 FC
- 120 nM FC (GRN mRNA) [4]: 1.8 FC

Substance: CO-4600: ASO designed to target intergenic enhancers (eRNA) (antisense eT*eT*eA*eG*e[5mC]*eA*e[5mC]*eG*eT*eG*eG*eA*e[5mC]*eT*e[5mC]*e[5mC]*eG*eA*eG*eG)
- hGRN mRNA FC [2]: 1.0 FC

Substance: CO-6382: ASO based on parent ASO CO-3462 (antisense e[5mC]*eT*eA*eT*eG*eA*eT*e[5mC]*eA*eG*e[5mC]*eT*eT*eG*eG*eG*e[5mC]*eG*eA*e[5mC])
- 30 nM FC (GRN mRNA) [4]: 0.8 FC
- 60 nM FC (GRN mRNA) [4]: 0.8 FC
- 120 nM FC (GRN mRNA) [4]: 0.9 FC

Substance: CO-6452: ASO designed to target an intragenic enhancer RNA (eRNA) (eT*eG*eG*e[5mC]*eT*eG*e[5mC]*e[5mC]*e[5mC]*e[5mC]*eT*e[5mC]*eA*e[5mC]*eG*eT*eT*eT*eG*e[5mC])
- hGRN mRNA FC [5]: 1.4 FC

Substance: CO-5288: ASO based on CO-3463 incorporating additional LNA modifications (antisense lG*lG*eA*lT*lA*eG*lG*eA*lT*eA*lG*eG*lA*eG*l[5mC]*eG*lA*eG*l[5mC]*l[5mC])
- GRN mRNA upregulation as compared to control ASO CO-1589 (Table 8 series): 2 fold
- 7.5 nM FC (GRN mRNA) [6]: 1.3 FC
- 13 nM FC (GRN mRNA) [6]: 1.5 FC
- 30 nM FC (GRN mRNA) [6]: 1.5 FC
- 60 nM FC (GRN mRNA) [6]: 1.9 FC
- 120 nM FC (GRN mRNA) [6]: 1.9 FC
- 150 nM FC (GRN mRNA) [6]: 2.1 FC

Substance: CO-6429: ASO based on parent ASOs CO-4363 and CO-4364 (eA*eG*eG*eG*eA*e[5mC]*eT*eT*eG*eG*eG*eA*eG*eT*eG*eG*eT*eG*eA*e[5mC]*eT*eG*eA*eA*e[5mC]*e[5mC])
- 30 nM FC (GRN mRNA) [3]: 1.0 FC
- 60 nM FC (GRN mRNA) [3]: 1.5 FC
- 120 nM FC (GRN mRNA) [3]: 1.4 FC

Substance: CO-6395: ASO based on parent ASO CO-3462 (antisense eT*eA*eG*eG*lA*eG*eA*eA*lT*e[5mC]*eG*e[5mC]*lT*eT*eT*eG*lG*eG*eA*eG)
- 30 nM FC (GRN mRNA) [4]: 1.0 FC
- 60 nM FC (GRN mRNA) [4]: 1.3 FC
- 120 nM FC (GRN mRNA) [4]: 1.6 FC

Substance: CO-4355: LNA/PS modified ASO based on CO-3423 (antisense eG*eG*lA*e[5mC]*lT*eT*lG*eG*lG*eA*lG*eT*lG*eG*lT*eG*lA*e[5mC]*eT*eG)
- 30 nM FC (GRN mRNA) [7]: 1.6 FC
- 60 nM FC (GRN mRNA) [7]: 1.8 FC
- 120 nM FC (GRN mRNA) [7]: 1.9 FC

Substance: CO-6519: ASO based on parent ASO CO-3462 (antisense eT*eA*eG*eG*eA*eGeAeAeTe[5mC]eGe[5mC]eTeTeTeGeGeG*eA*eG)
- 30 nM FC (GRN mRNA) [4]: 1.1 FC
- 60 nM FC (GRN mRNA) [4]: 1.0 FC
- 120 nM FC (GRN mRNA) [4]: 0.9 FC

Substance: CO-6407: ASO based on parent ASO CO-3462 (antisense TAGGAGAATCGCTTTGGGAG; 2'-MOE, 5-methylC, mixed PO/PS; listed as RNA; modified_base 1..3: mod_base = OTHER; note = Phosphorothioate linkage; modified_base 6..15: mod_base = OTHER; modified_base 1..9: mod_base = OTHER; modified_base 18..20: mod_bas)
- 30 nM FC (GRN mRNA) [4]: 1.1 FC
- 60 nM FC (GRN mRNA) [4]: 1.2 FC
- 120 nM FC (GRN mRNA) [4]: 1.6 FC

Substance: CO-6435: ASO designed to target an intragenic enhancer RNA (eRNA) (eA*eG*eG*e[5mC]*e[5mC]*eA*e[5mC]*e[5mC]*eT*eG*e[5mC]*eT*eG*e[5mC]*eT*e[5mC]*e[5mC]*eG*eA*eT)
- hGRN mRNA FC [5]: 1.2 FC

Substance: CO-4625: ASO designed to target intergenic enhancers (eRNA) (antisense eT*e[5mC]*eT*eT*eG*eT*eT*eG*eT*eT*eG*eG*eA*eA*eA*eT*eT*e[5mC]*e[5mC]*e[5mC])
- hGRN mRNA FC [2]: 1.1 FC

Substance: CO-6415: ASO based on parent ASOs CO-4363 and CO-4364 (antisense eG*eG*eA*l[5mC]*eT*eT*lG*eG*eG*lA*eG*eT*lG*eG*eT*lG*eA*e[5mC]*lT*eG*eA)
- 30 nM FC (GRN mRNA) [3]: 1.3 FC
- 60 nM FC (GRN mRNA) [3]: 1.6 FC
- 120 nM FC (GRN mRNA) [3]: 1.6 FC

Substance: CO-6514: ASO based on parent ASO CO-3462 (antisense eT*eA*eGeGeAeGeAeAeTe[5mC]eG*e[5mC]*eT*eT*eT*eG*eG*eG*eA*eG)
- 30 nM FC (GRN mRNA) [4]: 1.4 FC
- 60 nM FC (GRN mRNA) [4]: 1.9 FC
- 120 nM FC (GRN mRNA) [4]: 1.8 FC
